Reference: article PMC8233319, “Protein mimetic amyloid inhibitor potently abrogates cancer-associated mutant p53 aggregation and restores tumor suppressor function” (Nature Communications, 2021)
Values belong to the molecule of their own block, whether it stands above or below them.

How the values were obtained:
p53 (mutant R175H) = molecular target: T1, p53 (mutant R175H) (Homo sapiens, UniProt P04637, R175H); experiment: CETSA in SK-BR-3 cells (Tm […] to […] °C at […]); type: cell-based
T1 construct: gene TP53; endogenous mutant p53 in SK-BR-3 cells

[1] = molecular target: T2, p53 (mutant R248W DBD-derived peptide pR248W) (Homo sapiens, UniProt P04637, R248W); experiment: intrinsic tryptophan fluorescence quenching titration (also HSQC NMR on R248W DBD and CETSA in MIA PaCa-2 cells); type: binding
T2 construct: gene TP53

[2] = molecular target: T2, p53 (mutant R248W DBD-derived peptide pR248W); experiment: intrinsic tryptophan fluorescence quenching titration (weak; no CETSA stabilization of R248W); type: binding
[3] = molecular target: the molecule itself; experiment: thioflavin T (ThT) amyloid aggregation kinetics; 25 uM peptide alone in PBS with 50 uM ThT, shaking, 37 °C, fluorescence every 5 min; self-assembly into amyloid

CETSA in SK-BR-3 cells (Tm 38.8 to 45.1 °C at 5 μM) (p53 (mutant R175H)): 45.1 ± 1.2 °C
Kd [1]: 0.366 ± 0.013 µM
Molecule: CCCCOc1nc(C(=O)Nc2ccc(C(=O)Nc3ccc(C(=O)OC)nc3OCCCN)nc2OCCCN)ccc1[N+](=O)[O-] [ADH-6]

Kd [2]: 15.4 ± 0.8 µM
Molecule: COC(=O)c1ccc(NC(=O)c2ccc(NC(=O)c3ccc([N+](=O)[O-])c(OCC(=O)O)n3)c(OCc3ccccc3)n2)c(OCC(=O)O)n1 [ADH-1]

B1: pWT, WT p53 DBD-derived peptide (residues 248-273) (peptide, UniProt P04637 248-273, looked up)
peptide: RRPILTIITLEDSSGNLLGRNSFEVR
notes: source: synthetic peptide (Selleck Chemicals, Fmoc; purified in house by reverse-phase HPLC)
binding result [3]: binds
